Reference: patent publication US10307413B2, “Tetrahydro- and dihydro-isoquinoline PRMT5 inhibitors and uses thereof” (Epizyme, Inc., priority 2013, dated 2019)

What was measured:
Z-138 cell line = assay: Z-138 Proliferation Assay (Cell Titer Glo, 5 days); format: cell-based; settings: Homo sapiens, 120 h; Z-138 cells, 5 days, Cell Titer Glo; read-out: Proliferation EC50
Outline: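 Viability via CellTiter-Glo luminescence (ATP) after 5-day incubation at 37 °C, 5% CO2. Compounds tested in triplicate, nine 3-fold steps, highest final concentration 20 μM in 0.2% DMSO; 50% inhibitory concentration by 4-parameter fit of normalized curves.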

[1] = tested on: symmetric di-methyl arginine in Z-138 cells; assay: Z-138 Methylation Assay (In Cell Western for symmetric di-methyl arginine and DNA content); format: cell-based; settings: Homo sapiens, In Cell Western methylation, read-out: ICW EC50
Outline: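 In-cell western: symmetric di-methyl arginine signal ratioed to DRAQ5 DNA content after 96 h compound exposure of Z-138 cells seeded at 50,000 cells/mL.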

PRMT5/MEP50 = PRMT5/MEP50 (Homo sapiens (Human), UniProt O14744); assay: PRMT5 Biochemical Assay (PRMT5/MEP50 enzyme assay on peptide substrate, 3H-SAM Flashplate); settings: PRMT5 biochemical assay
Sequence of PRMT5/MEP50 (O14744 other isoform, or with tags, fused parts or gaps): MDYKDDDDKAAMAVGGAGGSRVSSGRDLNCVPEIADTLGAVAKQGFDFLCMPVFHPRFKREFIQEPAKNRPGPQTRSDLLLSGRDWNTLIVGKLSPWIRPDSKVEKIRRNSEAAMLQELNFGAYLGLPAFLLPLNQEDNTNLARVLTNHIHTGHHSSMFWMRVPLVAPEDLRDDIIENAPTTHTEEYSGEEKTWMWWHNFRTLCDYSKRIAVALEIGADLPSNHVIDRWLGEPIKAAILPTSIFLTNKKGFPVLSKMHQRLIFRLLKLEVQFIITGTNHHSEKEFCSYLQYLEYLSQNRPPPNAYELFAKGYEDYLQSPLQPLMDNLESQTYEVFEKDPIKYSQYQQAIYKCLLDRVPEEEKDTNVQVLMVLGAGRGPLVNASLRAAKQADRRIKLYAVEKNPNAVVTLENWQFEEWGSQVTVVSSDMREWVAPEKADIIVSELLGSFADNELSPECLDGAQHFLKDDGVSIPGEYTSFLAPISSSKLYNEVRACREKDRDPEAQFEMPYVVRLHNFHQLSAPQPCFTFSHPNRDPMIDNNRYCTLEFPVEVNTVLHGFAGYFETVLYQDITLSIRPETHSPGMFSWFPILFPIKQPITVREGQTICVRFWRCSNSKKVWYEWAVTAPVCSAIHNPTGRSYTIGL
Sequence of PRMT5/MEP50 (Q9BQA1 other isoform, or with tags, fused parts or gaps partner): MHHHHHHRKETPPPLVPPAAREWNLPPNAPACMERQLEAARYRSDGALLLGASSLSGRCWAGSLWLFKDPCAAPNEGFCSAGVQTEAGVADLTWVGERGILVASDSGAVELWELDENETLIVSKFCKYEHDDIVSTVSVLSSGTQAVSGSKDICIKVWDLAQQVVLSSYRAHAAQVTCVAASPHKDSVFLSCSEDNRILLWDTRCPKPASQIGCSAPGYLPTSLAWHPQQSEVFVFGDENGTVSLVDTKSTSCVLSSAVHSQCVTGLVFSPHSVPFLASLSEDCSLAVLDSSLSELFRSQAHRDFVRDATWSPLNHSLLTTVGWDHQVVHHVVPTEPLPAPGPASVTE
Outline: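 Radiometric methylation of a biotin-tagged H4(1-15) peptide by human PRMT5/MEP50 from baculovirus/Sf9, with ³H-SAM incorporation read on streptavidin Flashplates. Buffer: Bicine pH 7.6, TCEP, BSG, Tween20; compound preincubated 30 min at 25 °C; stopped with 600 µM final unlabeled SAM. DMSO and SAH controls; IC50 from fitted % inhibition.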

| SMILES | EC50 (Z-138 cell line) [nM] | EC50 [1] [nM] | IC50 (PRMT5/MEP50) [nM] |
| --- | --- | --- | --- |
| CC(=O)N1CCN(c2cc(C(=O)NC[C@H](O)CN3CCc4ccccc4C3)cc(NC3CCC3)n2)CC1 [Compound 398] | < 100 | < 100 | < 100 |
| Cc1nc(NC2COC2)cc(C(=O)NC[C@H](O)CN2CCc3ccccc3C2)n1 [Compound 399] | 1000 to 10000 | < 100 | < 100 |
| Cc1cnc(NC2CCNC2)cc1C(=O)NC[C@H](O)CN1CCc2ccccc2C1 (stereo partly drawn) [Compound 400] | > 20000 | > 1000 | < 100 |
| Cc1cnc(NC2CCN(C)C2)cc1C(=O)NC[C@H](O)CN1CCc2ccccc2C1 (stereo partly drawn) [Compound 401] | 1000 to 10000 | 101 to 1000 | < 100 |
| Cc1cnc(NC2CCN(CC(F)(F)F)C2)cc1C(=O)NC[C@H](O)CN1CCc2ccccc2C1 (stereo partly drawn) [Compound 402] | 1000 to 10000 | < 100 | < 100 |
| Cc1cnc(NC2CN(C)C2)cc1C(=O)NC[C@H](O)CN1CCc2ccccc2C1 [Compound 403] | > 20000 | > 1000 | < 100 |
| O=C(NC[C@H](O)CN1CCc2ccccc2C1)c1cn2nc(Cl)ccc2n1 [Compound 404] | 10000 to 50000 | 101 to 1000 | < 100 |
| O=C(NC[C@H](O)CN1CCc2ccccc2C1)c1cc(NC2COC2)nc(C(F)(F)F)n1 [Compound 405] | 101 to 1000 | < 100 | < 100 |
| CCC(=O)N1CCC(Nc2cc(C(=O)NC[C@H](O)CN3CCc4ccccc4C3)ncn2)CC1 [Compound 406] | < 100 | < 100 | < 100 |
| CCCC(=O)N1CCC(Nc2cc(C(=O)NC[C@H](O)CN3CCc4ccccc4C3)ncn2)CC1 [Compound 407] | < 100 | < 100 | < 100 |
| CC(C)C(=O)N1CCC(Nc2cc(C(=O)NC[C@H](O)CN3CCc4ccccc4C3)ncn2)CC1 [Compound 408] | < 100 | < 100 | < 100 |
| CC(C)CC(=O)N1CCC(Nc2cc(C(=O)NC[C@H](O)CN3CCc4ccccc4C3)ncn2)CC1 [Compound 409] | < 100 | < 100 | < 100 |
| CC(C)(C)C(=O)N1CCC(Nc2cc(C(=O)NC[C@H](O)CN3CCc4ccccc4C3)ncn2)CC1 [Compound 410] | < 100 | < 100 | < 100 |
| CN1CCCCC1CNc1cc(C(=O)NC[C@H](O)CN2CCc3ccccc3C2)ccn1 (stereo partly drawn) [Compound 411] | 101 to 1000 | < 100 | < 100 |
| CN1CCN(c2cc(C(=O)NC[C@H](O)CN3CCc4ccccc4C3)cc(NC3CCC3)n2)CC1 [Compound 413] | < 100 | < 100 | < 100 |
| O=C(NC[C@H](O)CN1CCc2ccccc2C1)c1cc(NC2COC2)nc(N2CCCCC2)n1 [Compound 414] | < 100 | < 100 | < 100 |
| CCCC(=O)N1CC(Nc2cc(C(=O)NC[C@H](O)CN3CCc4ccccc4C3)ncn2)C1 [Compound 415] | < 100 | < 100 | < 100 |
| CC(C)C(=O)N1CC(Nc2cc(C(=O)NC[C@H](O)CN3CCc4ccccc4C3)ncn2)C1 [Compound 416] | < 100 | < 100 | < 100 |
| CC(C)CC(=O)N1CC(Nc2cc(C(=O)NC[C@H](O)CN3CCc4ccccc4C3)ncn2)C1 [Compound 417] | < 100 | < 100 | < 100 |
| O=C(NC[C@H](O)CN1CCc2ccccc2C1)c1cc(NC2CCN(C(=O)C3CC3)CC2)ncn1 [Compound 418] | < 100 | < 100 | < 100 |
| O=C(NC[C@H](O)CN1CCc2ccccc2C1)c1cc(NC2CCN(C(=O)C3CCC3)CC2)ncn1 [Compound 419] | < 100 | < 100 | < 100 |
| CNCCOc1cc(C(=O)NC[C@H](O)CN2CCc3ccccc3C2)ccn1 [Compound 420] | 1000 to 10000 | < 100 | < 100 |
